Measured values from ChEMBL document CHEMBL1140004, “2-Arylimino-5,6-dihydro-4H-1,3-thiazines as a new class of cannabinoid receptor agonists. Part 1: discovery of CB2 receptor selective compounds” (Bioorg Med Chem Lett, 2007).
Active and inactive are the calls of the source. No cut-off for these calls is given here.

Legend:
Cannabinoid receptor 2 [1] = target: T1, Cannabinoid receptor 2 (Homo sapiens, UniProt P34972); test: Displacement of [3H]CP-55940 from human CB2 receptor
Cannabinoid receptor 2 [2] = target: T1, Cannabinoid receptor 2; test: Agonist activity at human CB2 in CHO cells assessed as inhibition of cAMP production; type: functional, cell-based
Cannabinoid receptor 2 [3] = target: Cannabinoid receptor 2 (Mus musculus, UniProt P47936); test: Displacement of [3H]CP-55940 from mouse CB2 receptor
Sequence of Cannabinoid receptor 2 (Mus musculus, UniProt P47936) (P47936 whole entry): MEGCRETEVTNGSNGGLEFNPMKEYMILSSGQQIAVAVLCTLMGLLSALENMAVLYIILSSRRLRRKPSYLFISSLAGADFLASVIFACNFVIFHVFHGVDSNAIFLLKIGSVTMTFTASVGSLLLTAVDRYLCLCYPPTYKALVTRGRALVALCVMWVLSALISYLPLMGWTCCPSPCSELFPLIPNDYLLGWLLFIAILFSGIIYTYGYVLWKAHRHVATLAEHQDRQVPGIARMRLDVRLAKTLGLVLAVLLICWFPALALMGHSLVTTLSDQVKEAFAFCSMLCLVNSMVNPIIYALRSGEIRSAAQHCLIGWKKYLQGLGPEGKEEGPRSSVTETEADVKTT

Cannabinoid receptor 1 [4] = target: T2, Cannabinoid receptor 1 (Homo sapiens, UniProt P21554); test: Displacement of [3H]CP-55940 from human CB1 receptor
T2 sequence (P21554 whole entry): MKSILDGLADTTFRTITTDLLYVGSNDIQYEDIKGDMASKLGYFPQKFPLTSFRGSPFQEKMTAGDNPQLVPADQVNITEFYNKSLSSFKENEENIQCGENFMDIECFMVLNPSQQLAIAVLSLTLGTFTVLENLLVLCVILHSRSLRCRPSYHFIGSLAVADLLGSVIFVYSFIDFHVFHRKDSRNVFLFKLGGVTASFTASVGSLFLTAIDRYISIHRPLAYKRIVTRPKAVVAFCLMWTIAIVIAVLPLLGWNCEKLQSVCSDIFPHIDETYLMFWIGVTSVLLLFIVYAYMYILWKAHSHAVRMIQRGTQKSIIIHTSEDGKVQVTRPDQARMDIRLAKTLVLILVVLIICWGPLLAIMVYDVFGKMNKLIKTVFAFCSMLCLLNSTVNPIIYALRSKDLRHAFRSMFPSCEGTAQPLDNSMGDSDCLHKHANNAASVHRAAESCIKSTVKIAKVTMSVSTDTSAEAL

Cannabinoid receptor 1 [5] = target: Cannabinoid receptor 1 (Mus musculus, UniProt P47746); test: Displacement of [3H]CP-55940 from mouse CB1 receptor
Sequence of Cannabinoid receptor 1 (Mus musculus, UniProt P47746) (P47746 whole entry): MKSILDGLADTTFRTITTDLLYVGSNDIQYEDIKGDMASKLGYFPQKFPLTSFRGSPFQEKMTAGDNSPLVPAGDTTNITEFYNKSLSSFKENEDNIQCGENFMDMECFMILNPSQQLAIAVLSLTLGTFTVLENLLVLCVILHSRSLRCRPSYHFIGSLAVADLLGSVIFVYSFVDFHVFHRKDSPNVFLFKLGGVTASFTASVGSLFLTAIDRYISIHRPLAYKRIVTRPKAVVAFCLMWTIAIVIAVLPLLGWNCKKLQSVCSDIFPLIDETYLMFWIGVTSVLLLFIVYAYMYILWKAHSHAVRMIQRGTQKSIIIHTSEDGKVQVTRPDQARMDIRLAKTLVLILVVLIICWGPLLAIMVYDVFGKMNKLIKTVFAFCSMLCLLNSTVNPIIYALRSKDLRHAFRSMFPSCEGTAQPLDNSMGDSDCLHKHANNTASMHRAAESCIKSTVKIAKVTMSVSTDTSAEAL

Cannabinoid receptor 1 [6] = target: T2, Cannabinoid receptor 1; test: Agonist activity at human CB1 in CHO cells assessed as inhibition of cAMP production; type: functional, cell-based
[7] = Half life in rat at 2 mg/kg, iv or 30 mg/kg, po; type: ADME, organism-based; details: in vivo
[8] = Clearance in rat at 2 mg/kg, iv or 30 mg/kg, po; type: ADME, organism-based; details: in vivo
[9] = AUC in rat at 30 mg/kg, po; type: ADME, organism-based; design: dose 30 mg/kg, route oral; details: plasma
[10] = Bioavailability in rat at 30 mg/kg, po; type: ADME, organism-based; details: in vivo
Mus musculus [11] = test: Analgesic activity in sc dosed ICR mouse right hind paw of assessed as formalin induced licking; type: functional, organism-based
Mus musculus [12] = test: Analgesic activity in sc dosed ICR mouse right hind paw in presence of SR-144528 assessed as inhibition of formalin induced licking; type: functional, organism-based

T1 sequence (P34972 whole entry): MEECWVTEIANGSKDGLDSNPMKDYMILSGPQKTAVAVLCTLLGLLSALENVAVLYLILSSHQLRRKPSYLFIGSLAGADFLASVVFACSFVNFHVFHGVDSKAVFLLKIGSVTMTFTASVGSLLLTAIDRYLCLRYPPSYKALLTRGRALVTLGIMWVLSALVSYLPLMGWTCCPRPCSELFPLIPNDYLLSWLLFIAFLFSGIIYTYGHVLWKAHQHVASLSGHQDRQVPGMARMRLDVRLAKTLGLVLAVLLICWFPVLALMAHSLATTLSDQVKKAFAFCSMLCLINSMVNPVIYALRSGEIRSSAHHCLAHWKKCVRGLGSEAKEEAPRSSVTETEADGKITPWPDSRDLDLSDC

SMILES | Ki (Cannabinoid receptor 2 [1]) | also measured
CSC(=S)N1CC(C)(C)CS/C1=N\c1ccccc1Oc1ccccc1 | 2920 nM | 
CSC(=S)N1CC(C)(C)CS/C1=N\c1ccccc1Br | 371 nM | 
CCCSC(=S)N1CC(C)(C)CS/C1=N\c1ccccc1C(C)C | 119 nM | 
CSC(=S)N1CC(C)CS/C1=N\c1ccccc1C(C)C (stereo unspecified) | 98 nM | 
CCC(=O)N1CC(C)(C)CS/C1=N\c1ccccc1C(C)C | 2090 nM | 
CCc1ccccc1/N=C1\SCC(C)(C)CN1C(=S)SC | 54 nM | 
CSC(=S)N1CCCS/C1=N\c1ccccc1C(C)C | 1580 nM | 
CSC(=S)N1CC(C)(C)CS/C1=N\c1ccccc1F | 252 nM | 
CCNC(=S)N1CC(C)(C)CS/C1=N\c1ccccc1C(C)C | > 5000 nM | 
CC(C)c1ccccc1/N=C1/NCC(C)(C)CS1 | > 5000 nM | 
CCOC(=O)N1CC(C)(C)CS/C1=N\c1ccccc1C(C)C | 428 nM | IC50 (Cannabinoid receptor 2 [2]): 322 nM; Ki (Cannabinoid receptor 2 [3]): 187 nM; Ki (Cannabinoid receptor 1 [4]): > 5 µM; Ki (Cannabinoid receptor 1 [5]): > 5000 nM; IC50 (Cannabinoid receptor 1 [6]): > 5 µM
CSC(=S)N1CC(C)(C)CS/C1=N\c1ccccc1C | 202 nM | 
CCOc1ccccc1/N=C1\SCC(C)(C)CN1C(=S)SC | 84 nM | 
CSC(=S)N1CC(C)(C)CS/C1=N\c1cccc(C(C)C)c1 | 33 nM | 
CSC(=S)N1CC(C)(C)CS/C1=N\c1ccccc1C(C)C | 9 nM | IC50 (Cannabinoid receptor 2 [2]): 6.1 nM; Ki (Cannabinoid receptor 2 [3]): 9 nM; Ki (Cannabinoid receptor 1 [4]): > 5 µM; Ki (Cannabinoid receptor 1 [5]): 2020 nM; IC50 (Cannabinoid receptor 1 [6]): > 5 µM; half-life [7]: 36 min; clearance [8]: 83.3 mL/min/kg; AUC [9]: 1100 ng·h/mL; bioavailability [10]: 18%; Activity (Mus musculus [11]): Active; Activity (Mus musculus [12]): inactive
CCCN1CC(C)(C)CS/C1=N\c1ccccc1C(C)C | 915 nM | 
CSC(=S)N1/C(=N/c2ccccc2C(C)C)SCCC1C (stereo unspecified) | > 5000 nM | 
CSC(=S)N1CC(C)(C)CS/C1=N\c1ccccc1C(F)(F)F | 141 nM | 

SMILES | Ki (Cannabinoid receptor 2 [1]) | also measured
CCOC(=S)N1CC(C)(C)CS/C1=N\c1ccccc1C(C)C | 230 nM | 
CSC(=S)N1CC(C)(C)CS/C1=N\c1ccccc1Cl | 722 nM | 
CCSC(=S)N1CC(C)(C)CS/C1=N\c1ccccc1C(C)C | 35 nM | 
CSC(=S)N1CCC(C)S/C1=N\c1ccccc1C(C)C (stereo unspecified) | > 5000 nM | 
CC(C)c1ccccc1/N=C1\SCC(C)(C)CN1Cc1ccccc1 | 1360 nM | 
CSC(=S)N1CC(C)(C)CS/C1=N\c1ccccc1 | 316 nM | 
CCNC(=O)N1CC(C)(C)CS/C1=N\c1ccccc1C(C)C | > 5000 nM | 
CSC(=S)N1CC(C)(C)CS/C1=N\c1ccc(C(C)C)cc1 | 22 nM | 
CSC(=S)N1CC(C)(C)CS/C1=N\c1ccccc1-c1ccccc1 | 989 nM | 
CSC(=S)N1CC(C)(C)CS/C1=N\c1ccccc1C(C)(C)C | 313 nM | 
CCCc1ccccc1/N=C1\SCC(C)(C)CN1C(=S)SC | 57 nM | 
Cc1c(C(=O)c2cccc3ccccc23)c2cccc3c2n1[C@H](CN1CCOCC1)CO3 [WIN-552122] |  | Ki (Cannabinoid receptor 2 [3]): 6 nM
CSC(=S)N1CC(C)(C)CS/C1=N\c1c(C)cccc1C | > 5000 nM | 
CC(C)SC(=S)N1CC(C)(C)CS/C1=N\c1ccccc1C(C)C | 275 nM | 
COc1ccccc1/N=C1\SCC(C)(C)CN1C(=S)SC | 18 nM | 
CCN1CC(C)(C)CS/C1=N\c1ccccc1C(C)C | 4880 nM | 
CCSC(=O)N1CC(C)(C)CS/C1=N\c1ccccc1C(C)C | 48 nM | 
